Marks after values point to notes of the source that are not given here.
What was measured:
adult male Swiss mice = assay: Antispermatogenic screen: single gavage dose to male mice, testes weight and Spermatogenic Index at 72 h; format: in vivo; conditions: day 3 (72 h)
Description: The compounds of the invention were tested in mice for their effects on spermatogenesis three days after a single oral dose by the procedure described in Cook et al (1995) below. Compounds active in this test have been shown also to be anti-fertility compounds.
Compounds were screened for antispermatogenic activity by dosing male mice on day 1 with a gavage dose of control vehicle, positive control (compound 1) or compound of the invention. At 72 h after dosing, animals were killed and the testes were excised, trimmed of fat, and weighed. One testis was examined histologically and rated for spermatogenic potential using the Spermatogenic Index (J. M. Whitsett, P. F. Noden, J. Cherry and A. D. Lawton, J. Reprod. Fertil., 72, 277 (1984), which is a semiquantitative estimate of the sperm producing ability of the testes The index is based on histological appearance of the spermatogenic cells in the seminiferous tubules. A scale of 1 to 6 is used with 5 to 6 being the normal status. A second assessment was based on the weight of the testes.
Tables 1 and 2 show pertinent biological results in terms of the change in testes weight (TW) and spermatogenic index (SI) relative to a control containing only the administration vehicle, but no indenopyridine. In Tables 1 and 2, R^3 and R^4 refer to structures Ib, where R^3 is in the para position; R^1 is ethyl; R^2 is methyl; and R^5 is hydrogen.

testes = assay: Antispermatogenic activity after a single oral dose to rats; format: in vivo; conditions: single oral dose of 30 mg/kg
Text: Spermatids became pycnotic, occasionally forming multinucleated associations. Sertoli cells appear to be cytologically normal. It appears that compound 1 targets spermatids or the Sertoli cell associated with these spermatids because histologic changes are observed in these spermatids first.

mice = assay: Lethargy and sedation in mice; format: in vivo
Text: Lethargy and sedation are obviously undesirable side effects in contraceptive agents. In contrast to the lethargy and sedation observed with compound 1, the compounds of the present invention produce minimal lethargy.

spermatogenesis = conditions: oral administration to animals; cited from earlier work
[1] = Table 2, 30 mg/kg single gavage dose, vehicle 1% Tween20 in water
[2] = racemic compounds, 30 mg/kg single gavage dose, vehicle 90% water, 7% Tween20, 3% ethanol
[3] = racemic compounds, 3 mg/kg single gavage dose, vehicle 90% water, 7% Tween20, 3% ethanol
[4] = racemic compounds, 10 mg/kg single gavage dose, vehicle 90% water, 7% Tween20, 3% ethanol

Row | melting point [°C] | Structure (SMILES) | SI change (%) (Spermatogenic Index, % change from vehicle control) (adult male Swiss mice; [1]) [%*] | TW change (%) (testes weight, % change from vehicle control) (adult male Swiss mice; [1]) [%*] | SI change (%) (Spermatogenic Index, % change from vehicle control) (adult male Swiss mice; [2]) [%*] | TW change (%) (testes weight, % change from vehicle control) (adult male Swiss mice; [2]) [%*] | Testis histology (testes) | Effect on weights of the testes (testes; within 24 h) | Lethargy (mice; 30 mg/kg given subcutaneously) | Lethargy and sedation (mice; oral dose of 30 mg/kg) | Inhibition of spermatogenesis (spermatogenesis) | SI change (%) (Spermatogenic Index, % change from vehicle control) (adult male Swiss mice; [3]) [%*] | TW change (%) (testes weight, % change from vehicle control) (adult male Swiss mice; [3]) | SI change (%) (Spermatogenic Index, % change from vehicle control) (adult male Swiss mice; [4]) [%*] | TW change (%) (testes weight, % change from vehicle control) (adult male Swiss mice; [4]) [%*]
1 | – | CCN1CC[C@@H]2[C@@H](c3ccc(C)cc3)c3cc(C)ccc3[C@@H]2C1 (racemic) [Compound 1, (4aRS,5SR,9bRS)-2-ethyl-2,3,4,4a,5,9b-hexahydro-7-methyl-5-(4-methylphenyl)-1H-indeno[1,2-c]pyridine] | −61 | −24 | −55 | 19 | Degenerative changes in the seminiferous tubules | drastically reducing the weights of the testes | extreme lethargy | some lethargy and sedation | reversible inhibition of spermatogenesis | – | – | – | –
2 | 169.6 to 170.3 | CCN1CC[C@@H]2[C@@H](c3ccc(C(=O)O)cc3)c3cc(C)c(Br)cc3[C@@H]2C1.Cl (racemic) [Compound 19, (4aRS,5SR,9bRS)-2-Ethyl-8-Bromo-7-Methyl-2,3,4,4a,5,9b-Hexahydro-5-(4-carboxylphenyl)-1H-Indeno[1,2-c]pyridine Hydrochloride] | – | – | −72 | −39 | – | – | – | – | – | −69 | −8 | −71 | −28
